According to patent US20040143012A1, “Method for stabilising particle size distribution of powder active principle dispersed in a liquid and uses thereof” (priority 2000, published 2004):
Several values for one entry are separate records, joined by “and”; a condition that tells them apart may be missing. Equal values may be shown once. Read-outs that look alike come from different tables or passages of the source.

Legend:
[1] = oral, cited from earlier work
[2] = Particle size analysis of isotretinoin powder by laser scattering granulometer, before and after dispersion in liquid media; assay type: physicochemical
Description: The ability of glycol ethers to stabilize the particle size of an active principle was established by means of studies aimed at comparing the particle size of an isotretinoin powder supposed to have, according to its supplier, a median of 20 μm, before and after dispersion in 5 different liquid media consisting, respectively, of:
The particle size of the isotretinoin powder before dispersion in the liquid media, ie in dry form, was analyzed on samples of 2 g of powder (the vehicle in this case being compressed air), whereas its particle size after dispersion in the various liquid media was analyzed on samples of 20 ml containing 2% (w/v) of this powder, except in the case of the oily mixture, in which the content of isotretinoin powder in the samples was 6.5% (w/v).
All the particle size analyses were carried out using a Mastersizer Banc Long laser scattering granulometer (Malvern Instruments Ltd company) and an MS1 sampler from the same company.

[3] = isotretinoin powder, supplier's statement; cited from earlier work

Median of the particle size ([2]; after dispersion in Labrafac PG (propylene glycol dicaprylocaprate), 2% (w/v)) [μm]	Median of the particle size ([2]; after dispersion in Labrasol (caprylocapric macrogolglycerides), 2% (w/v)) [μm]	Median of the particle size ([2]; after dispersion in Transcutol (diethylene glycol monoethyl ether, DGME), 2% (w/v)) [μm]	Median of the particle size ([2]; after dispersion in oily mixture of the Roaccutane type (yellow wax, soybean oils, partially hydrogenated plant oil, medium-chain triglyceride), 6.5% (w/v)) [μm]	Median of the particle size ([2]; isotretinoin powder in dry form, before dispersion (2 g samples, compressed air))	Structure (SMILES)	bioavailability ([1]; gel capsules of 10 and 25 mg, on average) [%]	bioavailability ([1]; soft capsules (Roaccutane), suspension in oily vehicle)	Median particle size according to supplier [3] [μm]
–	–	–	–	–	COc1cc(C)c(/C=C/C(C)=C/C=C/C(C)=C/C(=O)O)c(C)c1C [acitretin]	60	–	–
193.15	139.77	20.86	82.92	20 μm and 19.49 μm	CC1=C(/C=C/C(C)=C/C=C/C(C)=C\C(=O)O)C(C)(C)CCC1 [isotretinoin, 13-cis-retinoic acid]	–	about 25%	20
